Seven compounds from US11753407B2, “Compounds for treating spinal muscular atrophy” (PTC Therapeutics, Inc., priority 2012, dated 2023) can be followed below.

The test system of data set [1] is SMN2 minigene mRNA (SMN2-A minigene) in HEK293H cells. As to the kind of experiment: SMN2 minigene mRNA splicing RT-qPCR assay in cultured cells. Type of data set: cell-based, human. The conditions noted are these: Homo sapiens, HEK293-H; concentration increasing full length SMN2 mRNA 1.5-fold relative to vehicle-treated cells; HEK293H cells with SMN2-A minigene, 24 hours, 7-point concentration data; read-out: EC1.5x for production of full length SMN2 mRNA. The procedure, abridged:
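HEK293H cells stably carrying SMN2-A minigene treated with compounds (7-point, 3.16-fold dilutions, duplicates) for 24 h at 37 °C. Full-length exon 7-containing minigene mRNA measured by multiplex RT-qPCR with GAPDH, normalized and expressed relative to vehicle (modified ΔΔCt); EC1.5× is concentration giving 1.5-fold increase.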

In data set [2] the test system is Smn protein in SMA patient fibroblast cells (GM03813). In words: Smn protein assay in cultured cells (SMN HTRF). Particulars: SMA patient fibroblast cells, 48 hours; for EC1.5x for Smn protein expression: 7-point concentration curve, SMN HTRF, concentration producing 1.5 times Smn protein vs DMSO vehicle control; for maximum fold (Fold) increase of Smn protein: 7-point concentration data, fold relative to vehicle control. The class given is cell-based, human. A digest of the protocol: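 SMA patient fibroblasts (5,000/well, DMEM-10% FBS) treated 48 h at 37° C with 7-point, 3.16-fold compound series in triplicate; lysates read by SMN HTRF (665/620 nm ratio). Fold Smn increase over DMSO vehicle derived; EC1.5× is concentration giving 1.5-fold Smn, with maximum fold also reported.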

By melting point is commonly meant the temperature, or range, at which the solid turns liquid.

The structures appear in SMILES notation. Where only a bound is given, the exact number is not on record here.

`CCc1nc(C)cn2nc(-c3cc(=O)n4cc(N5CCC(N6CCCC6)CC5)ccc4n3)cc12` [Compound 634, 2-(4-ethyl-6-methylpyrazolo[1,5-a]pyrazin-2-yl)-7-[4-(pyrrolidin-1-yl)piperidin-1-yl]-4H-pyrido[1,2-a]pyrimidin-4-one]: the melting point is 229 to 232 °C. Further, the EC (1.5-fold increase) in data set [1] is less than 0.1 µM. Also, in data set [2], the “EC1.5x for Smn protein expression” value was “**** (an EC1.5x≤0.3 μM is indicated by four stars (****))” and the “maximum fold (Fold) increase of Smn protein” value (shortened to “maximum fold (Fold) increase”) is listed as “***** (a fold increase >1.65 is indicated by five stars (*****))”.

On to `CCc1nc(C)cn2nc(-c3cc(=O)n4cc(N5CCN[C@@H](C)C5)ccc4n3)cc12` [Compound 635, 2-(4-ethyl-6-methylpyrazolo[1,5-a]pyrazin-2-yl)-7-[(3S)-3-methylpiperazin-1-yl]-4H-pyrido[1,2-a]pyrimidin-4-one], for which the melting point lay in the range of 202 to 204 °C. The EC (1.5-fold increase) in data set [1] was less than 0.1 µM. Besides, in data set [2], the “EC1.5x for Smn protein expression” value is “**** (an EC1.5x≤0.3 μM is indicated by four stars (****))” and the “maximum fold (Fold) increase” value is on record as “***** (a fold increase >1.65 is indicated by five stars (*****))”.

`CCc1nc(C)cn2nc(-c3cc(=O)n4cc(N5CCCN(C)CC5)ccc4n3)cc12` [Compound 636, 2-(4-ethyl-6-methylpyrazolo[1,5-a]pyrazin-2-yl)-7-(4-methyl-1,4-diazepan-1-yl)-4H-pyrido[1,2-a]pyrimidin-4-one] had a melting point of 175 to 180 °C. The EC (1.5-fold increase) in data set [1] is less than 0.1 µM. Besides, in data set [2], the “EC1.5x for Smn protein expression” value is “**** (an EC1.5x≤0.3 μM is indicated by four stars (****))” and the “maximum fold (Fold) increase” value is on record as “***** (a fold increase >1.65 is indicated by five stars (*****))”.

`CCc1cc(-c2cc(=O)n3cc(N4CCNCC4)ccc3n2)cn2cc(C)nc12` [Compound 637, 2-(8-ethyl-2-methylimidazo[1,2-a]pyridin-6-yl)-7-(piperazin-1-yl)-4H-pyrido[1,2-a]pyrimidin-4-one] yielded a melting point of 264 to 271 °C. Also, the EC (1.5-fold increase) in data set [1] was less than 0.1 µM. For the same compound, in data set [2], the “EC1.5x for Smn protein expression” value is listed as “**** (an EC1.5x≤0.3 μM is indicated by four stars (****))” and the “maximum fold (Fold) increase” value was “***** (a fold increase >1.65 is indicated by five stars (*****))”.

In the case of `CCc1cc(-c2cc(=O)n3cc(N4CCN[C@H](C)C4)ccc3n2)cn2cc(C)nc12` [Compound 638, 2-(8-ethyl-2-methylimidazo[1,2-a]pyridin-6-yl)-7-[(3R)-3-methylpiperazin-1-yl]-4H-pyrido[1,2-a]pyrimidin-4-one], the melting point lay in the range of 230 to 234 °C. Besides, the EC (1.5-fold increase) in data set [1] is less than 0.1 µM. In data set [2], the “EC1.5x for Smn protein expression” value is “**** (an EC1.5x≤0.3 μM is indicated by four stars (****))” and the “maximum fold (Fold) increase” value is “***** (a fold increase >1.65 is indicated by five stars (*****))”.

Regarding `CCc1cc(-c2cc(=O)n3cc(N4CCN[C@@H](C)C4)ccc3n2)cn2cc(C)nc12` [Compound 639, 2-(8-ethyl-2-methylimidazo[1,2-a]pyridin-6-yl)-7-[(3S)-3-methylpiperazin-1-yl]-4H-pyrido[1,2-a]pyrimidin-4-one], the melting point lay in the range of 232 to 236 °C. Also, in data set [1], the EC (1.5-fold increase) was less than 0.1 µM. Moreover, in data set [2], the “EC1.5x for Smn protein expression” value is recorded as “**** (an EC1.5x≤0.3 μM is indicated by four stars (****))” and the “maximum fold (Fold) increase” value is “***** (a fold increase >1.65 is indicated by five stars (*****))”.

`Cc1cn2nc(-c3cc(=O)n4cc(C5CCN(C(C)C)CC5)ccc4n3)cc2c(C)n1` [Compound 640, 2-(4,6-dimethylpyrazolo[1,5-a]pyrazin-2-yl)-7-[1-(propan-2-yl)piperidin-4-yl]-4H-pyrido[1,2-a]pyrimidin-4-one]: the melting point lay within 196 to 198 °C. Further, the EC (1.5-fold increase) in data set [1] was less than 0.1 µM. Moreover, in data set [2], the “EC1.5x for Smn protein expression” value is on record as “**** (an EC1.5x≤0.3 μM is indicated by four stars (****))”; the “maximum fold (Fold) increase” value was “**** (a fold increase between >1.5 and ≤1.65 is indicated by four stars (****))”.
